Laboratory results reported in US9642854B2, “Flavanoid compounds and process for preparation thereof” (Council of Scientific & Industrial Research, priority 2009, dated 2017).

Experiments:
Type in all cases: cell-based, Helicobacter pylori
H. pylori [1] = assay: Anti H. pylori screening by disc diffusion susceptibility assay; design: key: strongly active (3^+, diameter>30 mm); intermediate active (2^+, ˜20-30 mm diameter); moderately active (1^+, ˜10-20 mm diameter); not active (<10 mm diameter); details: two doses, majority of the strains
Protocol: (§1) The discs were impregnated with […] of each of the compounds, dissolved either in ethanol or DMSO, and the zone of inhibition was measured after 72 h of growth under microaerophilic conditions at 37° C. Inhibition zone diameter ranging 10-20 mm was given a score of ^+, 20-30 mm as ^++ and that of >30 mm as ^+++, as obtained employing dose range of […]/disc. The detailed structural information of the molecules is provided under ‘Description of the Compounds’.
(§2) Methods and protocols for the determination of inhibition zone diameter are as stated under Experiment 1, and that of MIC values by microbroth dilution assay as in Experiment 3. ‘Nil’ means zone of inhibition below 10 mm.
(§3) The anti H. pylori activity of all 16 flavonoid molecules, 2 naturally isolated and 14 synthetic derivatives, was screened by disc diffusion sensitivity assay employing 2 clinical strains HP001 and HP002, and three standard strains ATCC® 700392, 43504 and 49503. A 0.5 mL inoculum (10^8 CFU/mL) for each bacterial strain tested was flooded on freshly prepared Brain Heart Infusion (BHI) agar plates supplemented with 7% FCS, 0.5% IsoVitalex and 0.0025% DENT® and the discs (5 mm diameter) containing different compounds or antibiotics (dissolved either in ethanol or DMSO) were placed on the agar surface. After incubation for 3 days in a microaerophilic atmosphere at 37° C., the diameter of the zone of inhibition was measured (Glupczynsky, 1996; McNulty et al., 2002).

H. pylori [2] = assay: as above; design: key: strongly active (diameter>30 mm) and were given a score of 3^+; intermediate active (^˜20-30 mm diameter) and were given a score of 2^+; moderately active (^˜10-20 min diameter) and were given a score of 1^+; not active (>10 mm diameter); details: 100 and 200 μg/disc, majority of the strains
Protocol: as §1, §2, §3

H. pylori [3] = assay: as above; details: 100 and 200 mg/disc (so in the source), 72 h
Outline: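 Clinical strains HP001, HP002 and ATCC 700392, 43504, 49503 (10^8 CFU/mL) spread on supplemented BHI agar; 5 mm discs loaded with 100 and 200 […] compound in ethanol or DMSO. Zones read after 72 h microaerophilic growth at 37 °C; scored + (10-20 mm), ++ (20-30 mm), +++ (>30 mm), Nil <10 mm.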

H. pylori [4] = assay: Anti H. pylori spectrum (MIC) by agar dilution method; details: for MIC50: MIC against 50% of the strains of the panel; for MIC Range: panel of 6 clinical isolates and 4 standard strains
Outline: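 Agar dilution per CLSI against six clinical isolates and four standard strains on BHI agar with 7% FCS, 0.5% IsoVitalex and DENT. Inoculum ~10^8 CFU/mL; 2-fold compound dilutions from 1.56-100; 72 h microaerophilic at 37 °C. MIC read visually as no growth, in duplicate; MIC50 covers 50% of strains.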

Row | Structure (SMILES) | Activity class by inhibition zone diameter (H. pylori [1]) | Activity class by inhibition zone diameter (H. pylori [2]) | Inhibition zone diameter (score) (H. pylori [3]; ATCC standard strain 43504) | Inhibition zone diameter (score) (H. pylori [3]; ATCC standard strain 49503) | Inhibition zone diameter (score) (H. pylori [3]; ATCC standard strain 700392) | Inhibition zone diameter (score) (H. pylori [3]; clinical strain HP001) | Inhibition zone diameter (score) (H. pylori [3]; clinical strain HP002) | MIC50 (H. pylori [4]) | MIC Range (H. pylori [4])
1 | O=c1cc(-c2ccccc2)oc2cc(OCCCN3CCOCC3)cc(O)c12 [CHM-2, 5-Hydroxy-7-(3-morpholin-4-yl-propoxy)-2-phenyl-chromen-4-one] | not active | not active | Nil (‘Nil’ means zone of inhibition below 10 mm) | Nil (‘Nil’ means zone of inhibition below 10 mm) | Nil (‘Nil’ means zone of inhibition below 10 mm) | Nil (‘Nil’ means zone of inhibition below 10 mm) | Nil (‘Nil’ means zone of inhibition below 10 mm) | – | –
2 | CN(C)CCCCCCOc1cc(O)c2c(=O)cc(-c3ccccc3)oc2c1 [CHN-1, 7-(6-Dimethylamino-hexyloxy)-5-hydroxy-2-phenyl-chromen-4-one] | not active | not active | Nil (‘Nil’ means zone of inhibition below 10 mm) | Nil (‘Nil’ means zone of inhibition below 10 mm) | Nil (‘Nil’ means zone of inhibition below 10 mm) | Nil (‘Nil’ means zone of inhibition below 10 mm) | Nil (‘Nil’ means zone of inhibition below 10 mm) | – | –
3 | O=c1cc(-c2ccccc2)oc2cc(O)cc(O)c12 [Chrysin, 5,7-Dihydroxy-2-phenyl-chromen-4-one, reference compound] | not active | not active | Nil (‘Nil’ means zone of inhibition below 10 mm) | Nil (‘Nil’ means zone of inhibition below 10 mm) | Nil (‘Nil’ means zone of inhibition below 10 mm) | Nil (‘Nil’ means zone of inhibition below 10 mm) | Nil (‘Nil’ means zone of inhibition below 10 mm) | much higher | much higher
4 | CCCCCCCCCCCCCCCCC(=O)Oc1cc2oc(-c3ccccc3)cc(=O)c2c(O)c1OC [ORC-16, Heptadecanoic acid 5-hydroxy-6-methoxy-4-oxo-2-phenyl-4H-chromen-7-yl ester] | not active | not active | Nil (‘Nil’ means zone of inhibition below 10 mm) | Nil (‘Nil’ means zone of inhibition below 10 mm) | Nil (‘Nil’ means zone of inhibition below 10 mm) | Nil (‘Nil’ means zone of inhibition below 10 mm) | Nil (‘Nil’ means zone of inhibition below 10 mm) | – | –
5 | COc1c(O)cc2oc(-c3ccccc3)cc(=O)c2c1O [Oroxylin A, reference compound] | not active | not active | Nil (‘Nil’ means zone of inhibition below 10 mm) | Nil (‘Nil’ means zone of inhibition below 10 mm) | Nil (‘Nil’ means zone of inhibition below 10 mm) | Nil (‘Nil’ means zone of inhibition below 10 mm) | Nil (‘Nil’ means zone of inhibition below 10 mm) | much higher | much higher
